Paper PMC3324139 (2012)

What was measured:
[1] = tested on: 57 mer-RNA aptamer (RNA, aptamer) GAGCCUAAAACAUACCAGAGAAAUCUGGAGAGGUGAAGAAUACGACCACCUAGGCUC; experiment: competitive enzyme-linked aptamer assay (ELAA); conditions: sodium phosphate 10 mM, no added NaCl, no Mg2+; pH 7.2, RT; TC-HRP displaced; relative to TC = 100% at 50% B/B0; apparent
[2] = tested on: 76 mer-DNA aptamer (DNA, aptamer) CGTACGGAATTCGCTAGCCCCCCGGCAGGCCACGGCTTGGGTTGGTCCCACTGCGCGTGGATCCGAGCTCCACGTG; experiment: competitive enzyme-linked aptamer assay (ELAA); conditions: sodium phosphate 10 mM, no added NaCl, no Mg2+; pH 7.2, RT; TC-HRP displaced; relative to TC = 100% at 50% B/B0; apparent

SMILES: CN(C)[C@@H]1C(=O)C(C(N)=O)=C(O)[C@@]2(O)C(=O)C3=C(O)c4c(O)cccc4[C@@](C)(O)[C@H]3[C@H](O)[C@@H]12
- Cross-reactivity [1]: 35.3%
- Cross-reactivity [2]: 129.7%
